Data from patent US9726664B2, “Animal model for diabetic complications” (NEDERLANDSE ORGANISATIE VOOR …, priority 2010, dated 2017).

Columns and labels:
[1] = system: LDLr−/− mice; test: Intervention study in LDLr−/− mice on 45 En % Lard diet: body weight and adipose depots; type: in vivo; settings: for gonadal fat mass: drug mixed into diet from week 9 until week 16, FIG. 6
Procedure: Based on the findings of the above experiment, an intervention study was designed. The middle dose (45 En % lard diet) was defined to be the optimal diet to use for interventions with drugs since ALAT was not increased Thereby putative adverse liver effects of drugs can still be detected. Several anti-diabetic interventions (drugs and life-style) were tested according to the experimental set-up described above.
LDLr−/− mice (12 weeks old) were fed 45 En % Lard diet for 9 weeks to establish a prediabetic state (as described above and including visceral adiposity, hypertriglyceridemia, elevated glucose and insulin, chronic inflammation). After these 9 weeks, the interventions were started and continued until week 16. Drugs were mixed into lard diet and administered orally via the feed. One group of mice was sacrifice at the start of the intervention at week 9 for reference. Another control group was fed chow throughout the 16 weeks (serving as internal reference). The groups were as follows:
(§1) Body weight and food intake were measured regularly and blood samples were taken at t=0, t=6, t=9, t=12, t=14 and t=15 weeks. Spot urine was collected at t=0, t=8 and t=15 weeks. At the end of the study, the mice were sacrificed and the various organs were isolated and weighed and stored at −80 C and/or in formalin. Livers were processed for microarray analysis. More specifically, the same lobe of each liver was used for RNA extraction to prepare mRNA of microarray quality according to an established protocol (Kleemann et al., Genome Biology, 2007).

[2] = system: LDLr−/− mice; test: Intervention study in LDLr−/− mice on 45 En % Lard diet: microalbuminuria (albumine/creatinine ratio in spot urine); type: in vivo; settings: compared to high fat treated control animals not treated with drugs, ratio as μg albumine per mg creatinine, drug mixed into 45 En % Lard diet from week 9 until week 16, FIG. 7
Procedure: Several anti-diabetic interventions (drugs and life-style) were tested according to the experimental set-up described above.
After these 9 weeks, the interventions were started and continued until week 16. Drugs were mixed into lard diet and administered orally via the feed. One group of mice was sacrifice at the start of the intervention at week 9 for reference. Another control group was fed chow throughout the 16 weeks (serving as internal reference). The groups were as follows:
as §1
Microalbuminuria is a hallmark of diabetic nephropathy and was determined by measuring the concentration of albumine and creatinine in spot urine collected at various time points during the experiment. Subsequently the albumine/creatinine ratio was calculated, viz. the amount of albumine expressed in μg per mg creatinine (FIG. 7).

| SMILES | gonadal fat mass [1] | albumine/creatinine ratio (microalbuminuria) [2] | body weight ([1]; drug mixed into diet, orally via feed, from week 9 until week 16, FIG. 5) |
| --- | --- | --- | --- |
| COc1ccc(Cl)cc1C(=O)NCCc1ccc(S(=O)(=O)NC(=O)NC2CCCCC2)cc1 [glibenclamide, Glibenclamide] | lowered | significantly improved |  |
| O=S(=O)(c1ccccc1)N(CC(F)(F)F)c1ccc(C(O)(C(F)(F)F)C(F)(F)F)cc1 [LXR agonist] | lowered |  | reduced |
| CC(C)c1c(C(=O)Nc2ccccc2)c(-c2ccccc2)c(-c2ccc(F)cc2)n1CC[C@@H](O)C[C@@H](O)CC(=O)O [atorvastatin] |  | significantly improved |  |
| CN(C)C(=N)N=C(N)N [metformin] |  | significantly improved |  |
| O=C(O)c1ccccc1O [salicylate] | lowered | significantly improved |  |
